Counter-ions that a name gives are not always drawn.
Target: T1, human Glucose-dependent Insulinotropic Polypeptide Receptor (hGIPR) (Homo sapiens, UniProt P48546)
T1 sequence (P48546 22-466): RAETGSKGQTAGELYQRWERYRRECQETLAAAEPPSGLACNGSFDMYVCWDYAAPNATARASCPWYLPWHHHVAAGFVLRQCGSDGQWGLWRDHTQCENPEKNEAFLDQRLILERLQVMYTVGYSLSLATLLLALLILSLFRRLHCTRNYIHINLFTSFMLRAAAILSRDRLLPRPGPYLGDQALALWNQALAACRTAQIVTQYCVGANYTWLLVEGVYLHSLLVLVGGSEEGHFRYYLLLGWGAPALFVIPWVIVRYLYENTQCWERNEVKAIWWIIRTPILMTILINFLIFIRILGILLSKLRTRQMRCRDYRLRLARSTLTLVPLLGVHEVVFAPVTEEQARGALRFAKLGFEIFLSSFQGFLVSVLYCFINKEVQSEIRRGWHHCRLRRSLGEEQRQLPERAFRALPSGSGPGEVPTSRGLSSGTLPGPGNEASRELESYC
Experiment: Functional in vitro GIPR antagonist potency assay (cAMP HTRF, CHO-K1 cells stably expressing hGIPR, hGIP stimulation at about EC80)
Format: cell-based
Details: geometric mean, hGIP at estimated EC80, examples marked ^2: overall geometric mean of multiple forms (including salts) tested
Method: Example AA. Functional In Vitro GIPR Antagonist Potency Assay
The functional in vitro antagonist potency for test compounds was determined by monitoring intracellular cyclic adenosine monophosphate (cAMP) levels in Chinese hamster ovary (CHO)—K1 cells stably expressing the human Glucose-dependent Insulinotropic Polypeptide Receptor (hGIPR). Following agonist activation, hGIPR associates with the G-protein complex causing the Gαs subunit to exchange bound guanosine diphosphate (GDP) for guanosine triphosphate (GTP), followed by dissociation of the Gαs-GTP complex. The activated Gas subunit can couple to downstream effectors to regulate the levels of second messengers or cAMP within the cell. Thereby, determination of intracellular cAMP levels allows for pharmacological characterization. Intracellular cAMP levels are quantitated using a homogenous assay utilizing the Homogeneous Time Resolved Fluorescence (HTRF) technology from Perkin Elmer. […] The two entities compete for binding to a monoclonal anti-cAMP antibody labeled with cryptate. The specific signal is inversely proportional to the concentration of cAMP in the cells.
Test compounds were solubilized to a concentration of 30 mM in 100% dimethyl sulfoxide (DMSO). An 11-point dilution series using 1 in 3.162-fold serial dilutions was created in 100% DMSO with a top concentration of 8 mM. The serially diluted compound was spotted with an Echo Acoustic liquid handler (Beckman Coulter) into a 384-well assay plate (Corning, Cat No. 3824) at 50 nL/well with duplicate points at each concentration, at a 200× final assay concentration (FAC). The final compound concentration range in the assay was 40 μM to […], with a final DMSO concentration of 0.5%.
Frozen assay-ready vials (at 1×10^7 cells/vial) of CHO-K1 cells stably expressing the Gs-coupled human GIPR receptor (Eurofins, DiscoverX, Cat No. 95-0146C2) were thawed, counted, and resuspended in assay buffer consisting of Hank's Balanced Salt Solution (HBSS, Lonza Cat No. 10-527) containing 20 mM (4-(2-hydroxyethyl)-1-piperazineethanesulfonic acid (HEPES, Lonza, Cat No. 17-737E), 0.1% bovine serum albumin (BSA, Sigma, Cat No. A7979), and 200 μM 3-isobutyl-1-methylxanthine (IBMX, Sigma, Cat No. 15879) at a density of 4×10^5 cells/mL. Cells were added to assay plate (5 μL/well of 4×10^5 cells/mL stock for 2,000 cells/well final) containing 50 nL of 200× FAC test compound, and incubated at 37° C. (95% O2: 5% CO2) for 2 hours, with micro-clime lids (Labcyte, Cat No. LLS-0310). Following the 2-hour cell and compound incubation, a stimulation mix comprised of hGIPR agonist human glucose-dependent insulinotropic polypeptide (hGIP, full length, Sigma Cat No. G2269) in assay buffer/0.1% DMSO was added to the assay plate (5 μL/well) at an estimated EC80 FAC (based on previous hGIP agonist curves) and incubated for another 30 minutes with micro-clime lids at 37° C. (95% O2: 5% CO2), after which intracellular cAMP levels were quantified as per Perkin Elmer's protocol (5 μL of d2 and then 5 μL cryptate, incubated for 1 hour at room temperature). Emission spectra of samples were measured on a Pherastar plate reader (BMG Labtech Inc) using a HTRF protocol (excitation, 320 nm; emission, 665 nm/620 nm).
(95% O2: 5% CO2), with a micro-clime lid. Following the 2-hour cell and DMSO incubation, a hGIP concentration response curve at 2× FAC (12-point curve using 1 in 3 serial dilutions, with triplicate points at each concentration, 100 nM final top concentration) in assay buffer/1% DMSO was added (5 μL/well) and incubated for a further 30 minutes with a micro-clime lid at 37° C. (95% O2: 5% CO2), after which intracellular cAMP levels were quantified and samples measured as described previously. Experiments passed quality control if the agonist concentration used for stimulation fell between the on-the-day EC50-EC90. […]

Row | SMILES | IC50 [nM]
1 | CC(C)c1ccc(NC(=O)N2CCC[C@@H]2C(=O)Nc2ccc3cc(C(=O)O)ccc3c2)cc1 (racemic) [Example 41, 6-[(1-{[4-(propan-2-yl)phenyl]carbamoyl}prolyl)amino]naphthalene-2-carboxylic acid] | 160
2 | CC(C)c1ccc(NC(=O)N2CCC[C@@H]2C(=O)Nc2ccc(-c3ccc(C(=O)O)cc3)cc2)cc1 (racemic) [Example 44, 4′-[(1-{[4-(propan-2-yl)phenyl]carbamoyl}prolyl)amino][1,1′-biphenyl]-4-carboxylic acid] | 6.8
3 | CC(C)c1ccc(NC(=O)N2CC[C@H](C)[C@@H]2C(=O)Nc2ccc(-c3ccc(C(=O)O)cc3)cc2)cc1 (single isomer, unassigned) [Example 34, 4′-{[(3S)-3-Methyl-1-{[4-(propan-2-yl)phenyl]carbamoyl}-D-prolyl]amino}[1,1′-biphenyl]-4-carboxylic acid or 4′-{[(3R)-3-Methyl-1-{[4-(propan-2-yl)phenyl]carbamoyl}-L-prolyl]amino}[1,1′-biphenyl]-4-carboxylic acid] | 10
4 | CC(C)c1ccc(NC(=O)N2CC[C@@H](C)[C@@H]2C(=O)Nc2ccc(-c3ccc(C(=O)O)cc3)cc2)cc1 (single isomer, unassigned) [Example 35, 4′-{[(3R)-3-Methyl-1-{[4-(propan-2-yl)phenyl]carbamoyl}-D-prolyl]amino}[1,1′-biphenyl]-4-carboxylic acid or 4′-{[(3S)-3-Methyl-1-{[4-(propan-2-yl)phenyl]carbamoyl}-L-prolyl]amino}[1,1′-biphenyl]-4-carboxylic acid] | 4.6
5 | CC[C@H]1CCN(C(=O)Nc2ccc(C(C)C)cc2)[C@H]1C(=O)Nc1ccc(-c2ccc(C(=O)O)cc2)cc1 (single isomer, unassigned) [Example 165, 4′-{[(3R)-3-ethyl-1-{[4-(propan-2-yl)phenyl]carbamoyl}-L-prolyl]amino}[1,1′-biphenyl]-4-carboxylic acid or 4′-{[(3S)-3-ethyl-1-{[4-(propan-2-yl)phenyl]carbamoyl}-D-prolyl]amino}[1,1′-biphenyl]-4-carboxylic acid] | 4.6
6 | CC[C@@H]1CCN(C(=O)Nc2ccc(C(C)C)cc2)[C@H]1C(=O)Nc1ccc(-c2ccc(C(=O)O)cc2)cc1 (single isomer, unassigned) [Example 166, 4′-{[(3R)-3-ethyl-1-{[4-(propan-2-yl)phenyl]carbamoyl}-D-prolyl]amino}[1,1′-biphenyl]-4-carboxylic acid or 4′-{[(3S)-3-ethyl-1-{[4-(propan-2-yl)phenyl]carbamoyl}-L-prolyl]amino}[1,1′-biphenyl]-4-carboxylic acid] | 5.7
7 | O=C(O)[C@@H]1CCc2nc(NC(=O)[C@H]3CCCN3C(=O)Nc3ccc(C(F)(F)F)cc3)ccc2C1 (single isomer, unassigned) [Example 217, 2-[(1-{[4-(trifluoromethyl)phenyl]carbamoyl}-D-prolyl)amino]-5,6,7,8-tetrahydroquinoline-6-carboxylic acid, DIAST-1] | 140
8 | O=C(O)[C@@H]1CCc2nc(NC(=O)[C@H]3CCCN3C(=O)Nc3ccc(C(F)(F)F)cc3)ccc2C1 (single isomer, unassigned) [Example 218, 2-[(1-{[4-(trifluoromethyl)phenyl]carbamoyl}-D-prolyl)amino]-5,6,7,8-tetrahydroquinoline-6-carboxylic acid, DIAST-2] | 33
9 | O=C(O)[C@@H]1CCc2nc(NC(=O)[C@H]3CCCN3C(=O)Nc3ccc(C(F)(F)F)c(F)c3)ccc2C1 (single isomer, unassigned) [Example 220, 2-[(1-{[3-fluoro-4-(trifluoromethyl)phenyl]carbamoyl}-D-prolyl)amino]-5,6,7,8-tetrahydroquinoline-6-carboxylic acid, DIAST-1] | 47
10 | CC(C)c1ccc(NC(=O)N2CCC[C@@H]2C(=O)Nc2ccc(-c3ccc(C(=O)O)nc3)cc2)cc1 [Example 1, Ammonium 5-{4-[(1-{[4-(propan-2-yl)phenyl]carbamoyl}-D-prolyl)amino]phenyl}pyridine-2-carboxylate] | 16
11 | CC(C)c1ccc(NC(=O)N2CCC[C@@H]2C(=O)Nc2ccc(-c3ccc(C(=O)O)cn3)cc2)cc1 [Example 2, 6-{4-[(1-{[4-(Propan-2-yl)phenyl]carbamoyl}-D-prolyl)amino]phenyl}pyridine-3-carboxylic acid] | 74
12 | CC(C)c1ccc(NC(=O)N2CCC[C@@H]2C(=O)Nc2ccc(-c3cccc(C(=O)O)c3)cc2)cc1 [Example 3, 4′-[(1-{[4-(Propan-2-yl)phenyl]carbamoyl}-D-prolyl)amino][1,1′-biphenyl]-3-carboxylic acid] | 17
13 | CC(C)c1ccc(NC(=O)N2CCC[C@@H]2C(=O)Nc2ccc(-c3ccc(C(=O)O)cc3)cc2)cc1 [Example 4, 4′-[(1-{[4-(Propan-2-yl)phenyl]carbamoyl}-D-prolyl)amino][1,1′-biphenyl]-4-carboxylic acid] | 4.1

Other lines, results leading:

Row | IC50 [nM] | SMILES
14 | 11 | O=C(O)[C@@H]1CCc2nc(NC(=O)[C@H]3CCCN3C(=O)Nc3ccc(C(F)(F)F)c(F)c3)ccc2C1 (single isomer, unassigned) [Example 221, 2-[(1-{[3-fluoro-4-(trifluoromethyl)phenyl]carbamoyl}-D-prolyl)amino]-5,6,7,8-tetrahydroquinoline-6-carboxylic acid, DIAST-2]
15 | 81 | Cc1cc(NC(=O)N2CCC[C@@H]2C(=O)Nc2ccc3c(n2)CC[C@@H](C(=O)O)C3)ccc1C(F)(F)F (single isomer, unassigned) [Example 226, 2-[(1-{[3-methyl-4-(trifluoromethyl)phenyl]carbamoyl}-D-prolyl)amino]-5,6,7,8-tetrahydroquinoline-6-carboxylic acid, DIAST-1]
16 | 53 | Cc1cc(NC(=O)N2CCC[C@@H]2C(=O)Nc2ccc3c(n2)CC[C@@H](C(=O)O)C3)ccc1C(F)(F)F (single isomer, unassigned) [Example 227, 2-[(1-{[3-methyl-4-(trifluoromethyl)phenyl]carbamoyl}-D-prolyl)amino]-5,6,7,8-tetrahydroquinoline-6-carboxylic acid, DIAST-2]
17 | 36 | CC(C)c1ccc(NC(=O)N2CCC[C@@H]2C(=O)Nc2ccc3c(n2)CC[C@@H](C(=O)O)C3)cc1F (single isomer, unassigned) [Example 228, 2-[(1-{[3-fluoro-4-(propan-2-yl)phenyl]carbamoyl}-D-prolyl)amino]-5,6,7,8-tetrahydroquinoline-6-carboxylic acid, trifluoroacetate salt, DIAST-1]
18 | 11 | CC(C)c1ccc(NC(=O)N2CCC[C@@H]2C(=O)Nc2ccc3c(n2)CC[C@@H](C(=O)O)C3)cc1F (single isomer, unassigned) [Example 229, 2-[(1-{[3-fluoro-4-(propan-2-yl)phenyl]carbamoyl}-D-prolyl)amino]-5,6,7,8-tetrahydroquinoline-6-carboxylic acid, trifluoroacetate salt, DIAST-2]
